In ChEMBL document CHEMBL1201862, “PubChem BioAssay data set” (2004):
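Values below derive from 48-hour exposures of cells grown in 96-well plates, with endpoints linearly interpolated between the two concentrations bracketing the appropriate inhibition level. At the GI50, growth is halved.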 Calls of active or inactive are those of the source. No stated cut-off is given here; in the data, active = GI50 up to about 1.1 µM and inactive = higher.

Columns and labels:
Test in all cases: growth of human tumour cells (NCI), 48 h
SK-MEL-28 = test system: SK-MEL-28
RPMI-8226 = test system: RPMI-8226
CAKI-1 = test system: CAKI-1
A549 = test system: A549
DU-145 = test system: DU-145
HL-60 = test system: HL-60
SK-MEL-2 = test system: SK-MEL-2
OVCAR-8 = test system: OVCAR-8
M14 = test system: M14
NCI-H226 = test system: NCI-H226
SK-MEL-5 = test system: SK-MEL-5
786-0 = test system: 786-0
UACC-62 = test system: UACC-62
MDA-MB-435 = test system: MDA-MB-435
SR = test system: SR
MOLT-4 = test system: MOLT-4
HCT-116 = test system: HCT-116
EKVX = test system: EKVX
HCC 2998 = test system: HCC 2998

Measured: GI50

CC1=NN(C(=O)CC(=O)Nc2ccc(Cl)cc2)C(=O)C1/N=N\c1ccc(S(=O)(=O)c2ccc(/N=N/C3C(=O)N(C(=O)CC(=O)Nc4ccc(Cl)cc4)N=C3C)cc2)cc1 (configuration not stated)
inactive: SK-MEL-28 > 100 µM | RPMI-8226 > 100 µM | CAKI-1 > 100 µM | A549 > 100 µM | DU-145 > 100 µM | HL-60 > 100 µM | SK-MEL-2 51.9 µM | OVCAR-8 > 100 µM | M14 65.2 µM | NCI-H226 > 100 µM | SK-MEL-5 95.7 µM | 786-0 > 100 µM | UACC-62 > 100 µM | MDA-MB-435 > 100 µM | SR > 100 µM | MOLT-4 > 100 µM | HCT-116 > 100 µM | EKVX > 100 µM | HCC 2998 > 100 µM

O=C1/C(=C/c2cc3c(=O)c4ccccc4sc3s2)NC(=S)N1c1ccccc1
inactive: SK-MEL-28 > 100 µM | RPMI-8226 > 100 µM | CAKI-1 > 100 µM | DU-145 > 100 µM | HL-60 12.2 µM | SK-MEL-2 78.7 µM | OVCAR-8 > 100 µM | NCI-H226 > 100 µM | SK-MEL-5 91.2 µM | 786-0 23.7 µM | UACC-62 > 100 µM | MDA-MB-435 > 100 µM | SR 12.8 µM | MOLT-4 24.5 µM | HCT-116 40.4 µM | EKVX 48.3 µM | HCC 2998 > 100 µM

CCCCc1ccc(Nc2nc3ncnc-3c[nH]2)cc1
inactive: RPMI-8226 14.8 µM | CAKI-1 19.4 µM | A549 21.7 µM | DU-145 15.9 µM | HL-60 38.5 µM | SK-MEL-2 20.2 µM | OVCAR-8 17.8 µM | M14 18.6 µM | NCI-H226 15.9 µM | SK-MEL-5 16.6 µM | 786-0 25.6 µM | UACC-62 21 µM | MDA-MB-435 33.7 µM | SR > 10 µM | MOLT-4 14.3 µM | HCT-116 20.2 µM | EKVX 25.8 µM | HCC 2998 16.8 µM

CCC(=O)COc1ccc(NC(NC(=O)C(C(F)(F)F)C(F)(F)F)(C(F)(F)F)C(F)(F)F)cc1
inactive: SK-MEL-28 59.4 µM | RPMI-8226 16.9 µM | CAKI-1 36.1 µM | A549 54.5 µM | DU-145 22.2 µM | HL-60 22.2 µM | SK-MEL-2 30.3 µM | OVCAR-8 23.9 µM | M14 47.8 µM | NCI-H226 19.2 µM | SK-MEL-5 42.3 µM | 786-0 23.1 µM | MDA-MB-435 42.7 µM | SR 12.2 µM | MOLT-4 14.3 µM | HCT-116 20.6 µM | EKVX 49.2 µM | HCC 2998 > 100 µM
